The record followed here is ChEMBL document CHEMBL4138296, “Nonacidic Chemotype Possessing N-Acylated Piperidine Moiety as Potent Farnesoid X Receptor (FXR) Antagonists” (ACS Med Chem Lett, 2018).

The structures appear in SMILES notation. pIC50: −log10 of the molar value. Active and inactive are the calls of the source. No cut-off for these calls is given here. Bounds are passed on as bounds.

Assay [1] relates to 3T3-L1. As to the kind of experiment: Antiadipogenic activity in mouse 3T3L1 cells assessed as reduction in intracellular lipid droplets at 10 uM after 6 days by Oil Red O staining based assay. In kind it is functional, cell-based.
Assay [2] deals with 3T3-L1. The assay is described as follows: Antiadipogenic activity in mouse 3T3L1 cells assessed as inhibition of CDCA-induced intracellular lipid droplets after 6 days by Oil Red O staining based assay. In kind it is functional, cell-based.
Assay [3] deals with T1, Bile acid receptor (Homo sapiens, UniProt Q96RI1).
T1 sequence (Q96RI1 whole entry): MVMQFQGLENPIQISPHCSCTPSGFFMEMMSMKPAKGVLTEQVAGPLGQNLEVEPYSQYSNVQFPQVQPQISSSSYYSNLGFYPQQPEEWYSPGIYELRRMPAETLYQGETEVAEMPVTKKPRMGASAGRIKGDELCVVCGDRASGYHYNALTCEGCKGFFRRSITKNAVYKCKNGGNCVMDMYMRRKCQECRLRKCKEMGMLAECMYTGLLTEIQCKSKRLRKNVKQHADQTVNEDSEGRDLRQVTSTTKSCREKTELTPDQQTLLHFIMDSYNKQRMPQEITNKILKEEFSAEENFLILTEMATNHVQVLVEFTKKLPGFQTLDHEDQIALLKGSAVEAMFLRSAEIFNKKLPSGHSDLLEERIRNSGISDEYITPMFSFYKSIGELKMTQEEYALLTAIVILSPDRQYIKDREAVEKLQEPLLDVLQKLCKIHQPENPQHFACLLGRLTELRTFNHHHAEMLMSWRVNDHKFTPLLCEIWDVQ
The assay is described as follows: Antagonist activity at human FXR expressed in Hep3B cells assessed as inhibition of CDCA-induced FXR response element driven luciferase activity after 24 hrs. In kind it is cell-based.

A further assay concerns Hep 3B2. As to the kind of experiment: Cytotoxicity against human Hep3B cells assessed as reduction in cell viability by MTT assay. In kind it is functional, cell-based.
Assay [4] addresses T1, Bile acid receptor. The assay is described as follows: Antagonist activity at GST-tagged FXR LBD (unknown origin) assessed as inhibition of GW4064-induced fluorecein-labeled SRC2-2 coactivator recruitment by Lanthascreen TR-FRET assay. A general note: TR-FRET usually uses a lanthanide donor and a delayed reading to cut background.

As a reminder, the pIC50 is the negative decadic logarithm of the IC50, by convention in mol/L.

Consider `C/C=C1/C(=O)C[C@H]2[C@@H]3CCC4=CC(=O)CC[C@]4(C)[C@H]3CC[C@]12C`, for which the result in the assay with 3T3-L1 [1] was Active. Moreover, the inhibition result in the assay on 3T3-L1 [2] is “Dose-dependent effect”.
For `Cc1ccc2nc([C@H](CC3CCN(CC(C)C)CC3)N3C(=O)CN(c4ccc(Oc5ccccc5)cc4)C3=O)n(C)c2c1`, the pIC50 was 4.76 on Bile acid receptor [3], 5.16 in the assay on Hep 3B2 and 4.79 on Bile acid receptor [4].
On the same counts, the results for `Cc1ccc2nc([C@H](CC3CCNCC3)N3C(=O)CN(c4ccc(Oc5ccccc5)cc4)C3=O)n(C)c2c1` are 5.35, 4.78 and 4.19.
Regarding `CC(C)C(=O)N1CCC(C[C@@H](c2nc3ccc(Cl)cc3n2C)N2C(=O)CN(c3ccc(Oc4ccccc4)cc3)C2=O)CC1`, the pIC50 is 10.30 on Bile acid receptor [3], less than 4.00 with Hep 3B2 and 6.89 at Bile acid receptor [4].
As for `Cc1ccc2nc([C@H](CC3CCN(C(=O)C4CCCC4)CC3)N3C(=O)CN(c4ccc(Oc5ccccc5)cc4)C3=O)n(C)c2c1`, the negative-log IC50 (pIC50) at Bile acid receptor [3] is 11.22; in the assay on Hep 3B2 it was less than 4.00; at Bile acid receptor [4], 7.52.
As for `CC(C)C(=O)N1CCC(C[C@@H](c2nc3cc(F)ccc3n2C)N2C(=O)CN(c3ccc(Oc4ccccc4)cc3)C2=O)CC1`, the pIC50 on Bile acid receptor [3] is 10.22; in the assay on Hep 3B2 it was less than 4.00; at Bile acid receptor [4], 6.47.
Take `CC(=O)N1CCC(C[C@@H](c2nc3ccc(Cl)cc3n2C)N2C(=O)CN(c3ccc(Oc4ccccc4)cc3)C2=O)CC1`: the pIC50 is 9.10 at Bile acid receptor [3], less than 4.00 with Hep 3B2 and 5.46 at Bile acid receptor [4].
Taken in the same sequence, the figures for `CC(=O)N1CCC(C[C@@H](c2nc3ccccc3n2C)N2C(=O)CN(c3ccc(Oc4ccccc4)cc3)C2=O)CC1` were 11.70, 4.49 and 6.13.
On the same counts, the results for `CC(=O)N1CCC(C[C@@H](c2nc3cc(F)ccc3n2C)N2C(=O)CN(c3ccc(Oc4ccccc4)cc3)C2=O)CC1` are 9.00, less than 4.00 and 5.08.
Taken in the same sequence, the figures for `CC(C)C(=O)N1CCC(C[C@@H](c2nc3ccccc3n2C)N2C(=O)CN(c3ccc(Oc4ccccc4)cc3)C2=O)CC1` were more than 12.00, less than 4.00 and 7.42.
Take `CC(=O)N1CCC(C[C@@H](c2nc3ccc(C)cc3n2C)N2C(=O)CN(c3ccc(Oc4ccccc4)cc3)C2=O)CC1`: the pIC50 was 9.70 on Bile acid receptor [3], 4.76 in the assay on Hep 3B2 and 5.89 on Bile acid receptor [4].
